{"source": "patent US20060059579A1", "about": "“Model animals non-responsive to mycobacteria-origin lipoprotein/lipopeptide” (Japan Science and Technology Agency, priority 2002, published 2006)", "key": {"TLR1^-/- macrophages [1]": {"test_system": "TLR1^-/- macrophages", "assay_type": "cell-based, mouse"}, "TLR2": {"target": "T1, TLR2 (Homo sapiens, UniProt O60603)", "T1 construct": "expressed in transfected cells; host or cells: HEK 293 cells, transient transfection", "T1 sequence (O60603 21-784, species assumed)": "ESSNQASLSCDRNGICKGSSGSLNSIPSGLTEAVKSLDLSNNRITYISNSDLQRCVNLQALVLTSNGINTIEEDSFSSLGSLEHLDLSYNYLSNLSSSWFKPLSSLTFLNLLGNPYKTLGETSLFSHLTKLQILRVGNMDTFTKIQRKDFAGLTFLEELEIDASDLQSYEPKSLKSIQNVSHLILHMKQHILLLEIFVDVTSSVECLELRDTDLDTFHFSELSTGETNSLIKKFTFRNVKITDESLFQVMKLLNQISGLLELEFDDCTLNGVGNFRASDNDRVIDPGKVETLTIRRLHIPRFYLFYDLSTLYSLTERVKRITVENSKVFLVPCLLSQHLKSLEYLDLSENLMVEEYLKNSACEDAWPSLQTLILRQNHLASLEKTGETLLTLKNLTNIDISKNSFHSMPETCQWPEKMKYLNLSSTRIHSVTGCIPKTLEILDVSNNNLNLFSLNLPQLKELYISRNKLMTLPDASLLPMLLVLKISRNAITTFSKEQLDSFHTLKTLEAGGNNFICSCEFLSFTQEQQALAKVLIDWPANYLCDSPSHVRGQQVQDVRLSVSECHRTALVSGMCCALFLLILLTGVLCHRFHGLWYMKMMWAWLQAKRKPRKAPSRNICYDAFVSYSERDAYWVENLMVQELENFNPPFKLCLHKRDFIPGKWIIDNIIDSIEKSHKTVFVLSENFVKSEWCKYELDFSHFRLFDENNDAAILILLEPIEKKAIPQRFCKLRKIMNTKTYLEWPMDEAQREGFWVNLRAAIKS", "T1 sequence (Q15399 25-786, species assumed, further chain)": "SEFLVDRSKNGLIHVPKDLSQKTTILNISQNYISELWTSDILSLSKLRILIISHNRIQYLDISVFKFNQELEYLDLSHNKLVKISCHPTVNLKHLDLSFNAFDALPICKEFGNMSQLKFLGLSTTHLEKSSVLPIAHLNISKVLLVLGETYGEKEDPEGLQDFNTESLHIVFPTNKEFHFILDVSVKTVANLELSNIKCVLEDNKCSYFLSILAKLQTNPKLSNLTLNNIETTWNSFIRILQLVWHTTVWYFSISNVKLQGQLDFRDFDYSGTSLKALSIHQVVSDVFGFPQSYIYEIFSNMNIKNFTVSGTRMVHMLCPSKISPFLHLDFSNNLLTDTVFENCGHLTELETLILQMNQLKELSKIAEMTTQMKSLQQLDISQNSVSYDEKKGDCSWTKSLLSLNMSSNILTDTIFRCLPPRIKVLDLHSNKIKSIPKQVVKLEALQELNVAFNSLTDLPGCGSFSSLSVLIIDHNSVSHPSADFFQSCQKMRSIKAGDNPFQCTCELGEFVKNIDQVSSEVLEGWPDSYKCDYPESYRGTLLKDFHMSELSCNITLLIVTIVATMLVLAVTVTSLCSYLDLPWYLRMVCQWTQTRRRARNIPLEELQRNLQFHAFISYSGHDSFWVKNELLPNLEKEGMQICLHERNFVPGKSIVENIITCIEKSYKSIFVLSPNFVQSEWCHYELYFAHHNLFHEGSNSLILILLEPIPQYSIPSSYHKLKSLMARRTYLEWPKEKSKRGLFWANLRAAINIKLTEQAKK", "test": "NF-κB pELAM-luciferase reporter assay in HEK 293 cells expressing TLR2", "assay_type": "cell-based", "conditions": "expression of TLR2, 10 ng/ml for 8 h", "description": "(§1) HEK 293 cells were transformed with TLR1, TLR2 and TLR6 expression vectors, and pELAM-luciferase reporter plasmid were used together. For normalization of transfection efficiency by lipofectamine 2000 (Invitrogen), the indicated vector was used with pELAM-luciferase reporter plasmid (J. Bio. Chem. 274, 10689, 1999) and pRL-TK (Promega) to transfect transiently […] cells. 24 h after transfection, the cells were stimulated with 10 ng/ml of Pam3CSK4 for 8 h. Then, the cells were lysed, and luciferase activity was measured by using Dual-luciferase reporter assay system (Promega) according to the manufacturer's instruction."}, "TLR6 and TLR2": {"target": "T2, TLR6 and TLR2 (Homo sapiens, UniProt O60603)", "T2 construct": "expressed in transfected cells; host or cells: HEK 293 cells, transient transfection", "T2 sequence (O60603 21-784, species assumed)": "as the sequence (O60603 21-784, species assumed) above", "test": "NF-κB pELAM-luciferase reporter assay in HEK 293 cells co-expressing TLR6 and TLR2", "assay_type": "cell-based", "conditions": "co-expression of TLR6 and TLR2, 10 ng/ml for 8 h", "description": "as §1"}, "TLR1 and TLR2 [2]": {"target": "T3, TLR1 and TLR2 (Homo sapiens, UniProt O60603+Q15399)", "T3 sequence (Q15399 25-786, species assumed)": "as the sequence (Q15399 25-786, species assumed, further chain) above", "T3 sequence (O60603 21-784, species assumed)": "as the sequence (O60603 21-784, species assumed) above", "test": "Co-immunoprecipitation of HA-tagged TLR1 and Flag-tagged TLR2 in HEK293 cells", "assay_type": "binding", "design": "expressed in transfected cells; host or cells: HEK293 cells", "description": "HEK293 cells were co-transfected with 3 μg Flag-tagged TLR2, TLR4 or 6 μg HA-tagged TLR1. After 36 h, the cells were lysed in the lysis buffer containing 1.0% Nonidet P-40, 150 mM NaCl, 20 mM tris-HCl (pH 7.5), 5 mM EDTA and aprotease inhibitor cocktail tablet, Complete (Roche Diagnostics). The solution was pre-treated for 1 h with protein G-sepharose, and immunoprecipitated for 12 h by using 2 μg anti-Flag M2 antibody or 2 μg anti-HA 12 CA5 antibody. The beads were washed four times in the lysis buffer, and the immunoprecipitated proteins were eluted in SDS-PAGE sample buffer solution, separated on SDS-PAGE and transferred onto PVDF membrane. HA-tagged TLR1 was detected with anti-HA antibody (Roche Diagnostics) and HRP-tagged anti-mouse Ig antibody. Flag-tagged proteins were identified with the second antibody, HRP-conjugated anti-Flag M2 antibody. Then, the antibodies were detected by enhanced chemiluminescence system (Dupont)."}, "TLR1 and TLR2 [3]": {"target": "T3, TLR1 and TLR2", "test": "NF-κB pELAM-luciferase reporter assay in HEK 293 cells co-expressing TLR1 and TLR2", "assay_type": "cell-based", "design": "expressed in transfected cells; host or cells: HEK 293 cells, transient transfection", "conditions": "co-expression of TLR1 with TLR2, 10 ng/ml for 8 h", "description": "as §1"}, "[4]": {"test_system": "peritoneal macrophages of wild-type mice", "assay_type": "cell-based, mouse"}, "TLR1^-/- macrophages [5]": {"test_system": "TLR1^-/- macrophages", "assay_type": "cell-based, mouse", "remark": "listed apart in the source"}, "TLR2^-/- macrophages": {"test_system": "TLR2^-/- macrophages", "conditions": "Science 291, 1544, 2001; cited from earlier work"}}, "data": [{"substance": "N-myristyl-S-dimyristyl glyceryl (Myr3) CSK4 [Myr3CSK4]", "values": [{"measurement": "TNFα production", "setting": "TLR1^-/- macrophages [1]", "result": "impaired"}]}, {"substance": "N-palmitoyl-S-dilauryl glyceryl (N-Pam-S-Lau2)CSK4 [Lau2N-PamCSK4]", "values": [{"measurement": "TNFα production", "setting": "TLR1^-/- macrophages [1]", "result": "considerably impaired"}]}, {"substance": "MALP-2", "values": [{"measurement": "TNFα production", "setting": "TLR1^-/- macrophages [1]", "result": "responded normally"}]}, {"substance": "N-palmitoyl-S-dipalmitoyl glyceryl (Pam3) CSK4 [Pam3CSK4]", "values": [{"measurement": "TNFα production", "setting": "TLR1^-/- macrophages [1]", "result": "significantly impaired"}, {"measurement": "NF-κB activation (luciferase activity)", "setting": "TLR2", "result": "conferred the NF-κB activation"}, {"measurement": "NF-κB activation (luciferase activity)", "setting": "TLR6 and TLR2", "result": "did not augment the NF-κB activation"}, {"measurement": "extent of association between TLR1 and TLR2 on stimulation", "setting": "TLR1 and TLR2 [2]", "result": "did not affect"}, {"measurement": "NF-κB activation (luciferase activity)", "setting": "TLR1 and TLR2 [3]", "result": "significantly enhanced the activation"}]}, {"substance": "N-lauryl-S-dilauryl gylceryl (Lau3)CSK4 [Lau3CSK4]", "values": [{"measurement": "TNFα production", "setting": "TLR1^-/- macrophages [1]", "result": "impaired"}]}, {"substance": "19 kD lipoprotein: Native 19-kD lipoprotein purified from Mycobacterium tuberculosis", "values": [{"measurement": "TNFα production", "setting": "[4]", "result": "generated TNFα in a dose-dependent manner"}, {"measurement": "TNFα production", "setting": "TLR1^-/- macrophages [1]", "result": "impaired"}, {"measurement": "IL-6 production", "setting": "TLR1^-/- macrophages [5]", "result": "lower in TLR1^-/- macrophages compared with that of wild-type cells"}, {"measurement": "Cytokine production", "setting": "TLR2^-/- macrophages", "result": "inhibited"}]}]}
